pKi: −log10 of the molar value. Counter-ions that a name gives are not always drawn.
Target: T1, human recombinant GABAAR containing α5β3γ2 subunits (benzodiazepine site) (Homo sapiens, UniProt P18507+P31644)
T1 construct: expressed in transfected cells; host or cells: mouse L(tk−) cells, dexamethasone-inducible vector pMSGneo
Assay: In vitro radioligand binding assay (α5-GABAAR Ki)
Details: inhibition of [3H]Ro15-1788 binding, membranes of L(tk−) cells expressing human α5β3γ2; read-out: α5-GABAAR Ki
From the text: Mouse L(tk^−) cells stably expressing human α1β3γ2, α2β3γ2, α3β3γ2, α5β3γ2 GABAARs generated by transfection of the individual subunits in the dexamethasone-inducible expression vector pMSGneo in mouse L(tk^−) cells (Hadingham et al., 1993, Mol. Pharmacol. 43:970-975 and 1993, Mol. Pharmacol. 44:1211-1218) were used for binding and functional assays. For certain compounds, HEK293 cells stable expressing the human α1β3γ2L, α2β3γ2L, α3β3γ2L and α5β3γ2L GABAA receptors were used to evaluate their functional effects in a SyncroPatch electrophysiology assay.
L(tk^−) cells stably expressing human α1β3γ2, α2β3γ2, α3β3γ2, α5β3γ2 GABAARs were maintained in DMEM F12 medium supplemented with 10% Foetal Bovine Serum, 1% Penicillin/Streptomycin and 1 mg/mL Geneticin G418 in an incubator at 37° C. with a humidified atmosphere with 5% CO2.
The affinity (Ki) of compounds for the benzodiazepine site of human recombinant GABAARs was measured by their ability to inhibit the binding of the selective benzodiazepine antagonist [^3H] Ro15-1788 ([^3H] flumazenil).
L(tk^−) cells expressing human recombinant GABAAR containing α1β3γ2, α2β3γ2, α3β3γ2, α5β3γ2 subunits were harvested and membranes were prepared for each receptor combination in phosphate buffer (K2PO4 10 mM, pH 7.0) (Hadingham et al. (1992) Proc. Natl. Acad. Sci. USA; 89 (14): 6378-82). Protein concentration, receptor expression and the Kd of [^3H] Ro15-1788 were determined before Ki values of compounds were evaluated. For Kd evaluation, saturation binding curves were obtained by incubating membrane with various concentrations of [^3H] Ro15-1788 (82.5 Ci/mM), with nonspecific binding measured in the presence of 1 μM TP003.
For Ki evaluation, cell membranes were incubated with 4 nM [^3H] Ro15-1788 along with a range of concentrations of test compound. Nonspecific binding was determined using 1 μM TP003. All incubations were performed for 1 hour at 4° C. in assay buffer. The total assay volume was 0.5 mL, containing 100 μg membrane protein/well α1β3γ2, α2β3γ2, α3β3γ2 and 50 μg membrane protein/well for α53γ2. Incubations were terminated by filtration and washing with ice cold Tris-HCl buffer (50 mM, pH=7.4) over Whatman GF/B filters and the radioactivity of the filters was measured using liquid scintillation counting.
The % inhibition of [^3H] Ro15-1788 binding was plotted as a function of compound concentration and the IC50 calculated. From the IC50, the affinity (Ki) was calculated using the method of Cheng and Prusoff using the Kd values obtained for [^3H] Ro15-1788.

T1 sequence (P31644 32-462): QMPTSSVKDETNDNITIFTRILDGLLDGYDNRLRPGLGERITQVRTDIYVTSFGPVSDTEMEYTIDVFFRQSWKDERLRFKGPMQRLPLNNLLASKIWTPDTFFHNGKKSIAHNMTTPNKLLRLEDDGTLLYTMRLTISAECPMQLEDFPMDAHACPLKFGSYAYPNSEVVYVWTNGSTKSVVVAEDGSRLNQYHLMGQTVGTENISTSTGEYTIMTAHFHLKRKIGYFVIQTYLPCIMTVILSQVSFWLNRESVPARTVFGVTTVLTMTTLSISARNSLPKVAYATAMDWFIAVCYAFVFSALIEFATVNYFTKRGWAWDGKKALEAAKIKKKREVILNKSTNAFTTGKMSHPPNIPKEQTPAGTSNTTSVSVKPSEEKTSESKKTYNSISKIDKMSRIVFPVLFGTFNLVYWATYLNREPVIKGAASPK
T1 sequence (P28472 26-473 partner): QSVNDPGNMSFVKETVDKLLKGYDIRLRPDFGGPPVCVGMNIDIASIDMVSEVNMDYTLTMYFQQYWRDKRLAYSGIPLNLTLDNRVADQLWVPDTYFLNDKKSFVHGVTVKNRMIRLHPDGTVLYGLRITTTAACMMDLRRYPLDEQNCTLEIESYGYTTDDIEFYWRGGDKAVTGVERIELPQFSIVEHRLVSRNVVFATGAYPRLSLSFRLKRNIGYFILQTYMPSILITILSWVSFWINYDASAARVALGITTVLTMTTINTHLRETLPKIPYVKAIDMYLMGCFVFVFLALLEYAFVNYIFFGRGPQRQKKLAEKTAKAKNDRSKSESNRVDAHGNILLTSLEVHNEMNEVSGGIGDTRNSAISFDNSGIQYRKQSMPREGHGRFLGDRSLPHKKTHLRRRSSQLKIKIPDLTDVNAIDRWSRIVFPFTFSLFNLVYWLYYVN
T1 sequence (P18507 40-475): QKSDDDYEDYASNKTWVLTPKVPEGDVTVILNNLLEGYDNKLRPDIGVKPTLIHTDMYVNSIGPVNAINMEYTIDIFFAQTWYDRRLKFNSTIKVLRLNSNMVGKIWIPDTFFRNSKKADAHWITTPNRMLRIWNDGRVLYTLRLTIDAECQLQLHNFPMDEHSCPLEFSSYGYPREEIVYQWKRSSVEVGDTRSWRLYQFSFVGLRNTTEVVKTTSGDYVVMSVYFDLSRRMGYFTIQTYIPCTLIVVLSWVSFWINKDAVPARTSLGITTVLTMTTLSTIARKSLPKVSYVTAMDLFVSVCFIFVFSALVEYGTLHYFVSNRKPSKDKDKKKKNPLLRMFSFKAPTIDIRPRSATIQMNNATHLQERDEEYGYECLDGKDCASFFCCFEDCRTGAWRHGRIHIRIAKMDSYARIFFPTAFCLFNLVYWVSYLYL

| pKi | SMILES |
| --- | --- |
| 6.79 | COc1nc(-c2ccncc2C)ccc1NC(=O)c1c(-c2ccccc2)noc1C [Example 24, N-[2-Methoxy-6-(3-methyl-4-pyridyl)-3-pyridyl]-5-methyl-3-phenyl-isoxazole-4-carboxamide] |
| 7.38 | COc1nc(-c2cnccn2)ccc1NC(=O)c1c(-c2ccccc2)noc1C [Example 113, N-(2-Methoxy-6-(pyrazin-2-yl)pyridin-3-yl)-5-methyl-3-phenylisoxazole-4-carboxamide] |
| 6.98 | COc1nc(-c2cccc([N+](=O)[O-])c2)ccc1NC(=O)c1c(-c2ccccc2)noc1C [Example 8, N-[2-Methoxy-6-(3-nitrophenyl)-3-pyridyl]-5-methyl-3-phenyl-isoxazole-4-carboxamide] |
| 7.41 | CNc1nc(C)c(-c2ccc(NC(=O)c3c(-c4ccccc4)noc3C)c(OC)n2)c(C)n1 [Example 194, N-(6-(4,6-Dimethyl-2-(methylamino)pyrimidin-5-yl)-2-methoxypyridin-3-yl)-5-methyl-3-phenylisoxazole-4-carboxamide] |
| 7.47 | COc1nc(-c2c(C)n[nH]c2C)ccc1NC(=O)c1c(-c2ccccc2)noc1C [Example 25, N-[6-(3,5-Dimethyl-1H-pyrazol-4-yl)-2-methoxy-3-pyridyl]-5-methyl-3-phenyl-isoxazole-4-carboxamide] |
| 9.30 | Cc1onc(-c2ccccc2)c1C(=O)Nc1ccc(-c2cnoc2)nc1OC(C)C [Example 227, N-(2-isopropoxy-6-(isoxazol-4-yl)pyridin-3-yl)-5-methyl-3-phenyl-isoxazole-4-carboxamide] |
| 6.90 | COc1nc(-c2nn[nH]n2)ccc1NC(=O)c1c(-c2ccccc2)noc1C [Example 122, N-[2-Methoxy-6-(2H-tetrazol-5-yl)-3-pyridyl]-5-methyl-3-phenyl-isoxazole-4-carboxamide] |
| 7.77 | COc1nc(-c2cnc(CN)nc2)ccc1NC(=O)c1c(-c2ccc(Cl)cn2)nnn1C [Example 203, N-(6-(2-(Aminomethyl)pyrimidine-5-yl)-2-methoxypyridin-3-yl)-4-(5-chloropyridin-2-yl)-1-methyl-1H-1,2,3-triazole-5-carboxamide hydrochloride] |
| 8.06 | COc1nc(-c2ccc(CN)cc2)ccc1NC(=O)c1c(-c2ccccc2)noc1C [Example 182, N-[6-[4-(Aminomethyl)phenyl]-2-methoxy-3-pyridyl]-5-methyl-3-phenyl-isoxazole-4-carboxamide hydrochloride] |
| 9.40 | COc1cc(-c2cnc(N)nc2)ccc1NC(=O)c1c(-c2ccccc2)noc1C [Example 197, N-[4-(2-Aminopyrimidin-5-yl)-2-methoxy-phenyl]-5-methyl-3-phenyl-isoxazole-4-carboxamide hydrochloride] |
| 8.37 | COc1cc(-c2cnc(N)cn2)ccc1NC(=O)c1c(-c2ccccc2)noc1C [Example 198, N-[4-(5-Aminopyrazin-2-yl)-2-methoxy-phenyl]-5-methyl-3-phenyl-isoxazole-4-carboxamide hydrochloride] |
| 7.58 | COc1nc(-c2ccc(OC(F)F)nc2)ccc1NC(=O)c1c(-c2ccccc2)noc1C [Example 88, N-(6′-(Difluoromethoxy)-6-methoxy-[2,3′-bipyridin]-5-yl)-5-methyl-3-phenyl-isoxazole-4-carboxamide] |
| 8.08 | COc1nc(-c2cncc(OC(F)F)c2)cnc1NC(=O)c1c(-c2ccccc2)noc1C [Example 158, N-[5-[5-(Difluoromethoxy)-3-pyridyl]-3-methoxy-pyrazin-2-yl]-5-methyl-3-phenyl-isoxazole-4-carboxamide] |
| 8.54 | COc1nc(-c2c[nH]c(=O)c(F)c2)ccc1NC(=O)c1c(-c2ccccc2)noc1C [Example 116, N-(5′-Fluoro-6-methoxy-6′-oxo-1′,6′-dihydro-[2,3′-bipyridin]-5-yl)-5-methyl-3-phenylisoxazole-4-carboxamide] |
| 6.18 | COc1nc(-c2cnc(N(C)C)c(Cl)c2)ccc1NC(=O)c1c(-c2ccccc2)noc1C [Example 98, N-(5′-Chloro-6′-(dimethylamino)-6-methoxy-[2,3′-bipyridin]-5-yl)-5-methyl-3-phenylisoxazole-4-carboxamide] |
| 7.24 | COc1nc(-c2nccn3ccnc23)ccc1NC(=O)c1c(-c2ccccc2)noc1C [Example 38, N-(6-Imidazo[1,2-a]pyrazin-8-yl-2-methoxy-3-pyridyl)-5-methyl-3-phenyl-isoxazole-4-carboxamide] |
| 6.66 | COc1nc(-c2ccc(CCl)cc2)ccc1NC(=O)c1c(-c2ccccc2)noc1C [Example 224, N-[6-[4-(chloromethyl)phenyl]-2-methoxy-3-pyridyl]-5-methyl-3-phenyl-isoxazole-4-carboxamide] |
| 7.69 | COc1nc(-c2ncn(C)n2)ccc1NC(=O)c1c(-c2ccccc2)noc1C [Example 51, N-[2-Methoxy-6-(1-methyl-1,2,4-triazol-3-yl)-3-pyridyl]-5-methyl-3-phenyl-isoxazole-4-carboxamide] |
| 7.57 | COc1nc(-c2ccc3c(N)n[nH]c3c2)ccc1NC(=O)c1c(-c2ccccc2)noc1C [Example 35, N-[6-(3-Amino-1H-indazol-6-yl)-2-methoxy-3-pyridyl]-5-methyl-3-phenyl-isoxazole-4-carboxamide] |
| 7.09 | COc1nc(-c2cnn3cccnc23)ccc1NC(=O)c1c(-c2ccccc2)noc1C [Example 112, N-(2-Methoxy-6-(pyrazolo[1,5-a]pyrimidin-3-yl)pyridin-3-yl)-5-methyl-3-phenylisoxazole-4-carboxamide] |
| 7.31 | COc1nc(-c2ccncn2)ccc1NC(=O)c1c(-c2ccccc2)noc1C [Example 65, N-(2-Methoxy-6-pyrimidin-4-yl-3-pyridyl)-5-methyl-3-phenyl-isoxazole-4-carboxamide] |
| 7.14 | COc1ncc(-c2ccc(NC(=O)c3c(-c4ccccc4)noc3C)c(OC)n2)s1 [Example 10, N-[2-Methoxy-6-(2-methoxythiazol-5-yl)-3-pyridyl]-5-methyl-3-phenyl-isoxazole-4-carboxamide] |
| 8.89 | COc1ncc(-c2ccc(NC(=O)c3c(-c4ccccc4)noc3C)c(OC)n2)c(C)n1 [Example 191, N-[2-Methoxy-6-(2-methoxy-4-methyl-pyrimidin-5-yl)-3-pyridyl]-5-methyl-3-phenyl-isoxazole-4-carboxamide] |
| 6.50 | Cc1onc(-c2ccccc2)c1C(=O)Nc1ccc(-n2ccnc2)[nH]c1=O [Example 212, N-(6-Imidazol-1-yl-2-oxo-1H-pyridin-3-yl)-5-methyl-3-phenyl-isoxazole-4-carboxamide] |
| 8.11 | COc1nc(-c2ccc(CN3CCOCC3)cc2)ccc1NC(=O)c1c(-c2ccccc2)noc1C [Example 225, N-[2-methoxy-6-[4-(morpholinomethyl)phenyl]-3-pyridyl]-5-methyl-3-phenyl-isoxazole-4-carboxamide] |
| 6.95 | COc1nc(-c2c[nH]c3ncccc23)ccc1NC(=O)c1c(-c2ccccc2)noc1C [Example 105, N-(2-Methoxy-6-(1H-pyrrolo[2,3-b]pyridin-3-yl)pyridin-3-yl)-5-methyl-3-phenylisoxazole-4-carboxamide] |
| 6.63 | COc1nc(-c2ccsn2)ccc1NC(=O)c1c(-c2ccccc2)noc1C [Example 69, N-(6-Isothiazol-3-yl-2-methoxy-3-pyridyl)-5-methyl-3-phenyl-isoxazole-4-carboxamide] |
